From US9079866B2, “Flap modulators” (JANSSEN PHARMACEUTICA NV, priority 2013, dated 2015)
Where a name gives a salt, the structure may show the parent alone.

target: human FLAP (Homo sapiens (Human), UniProt P20292); assay: FLAP binding assay (HTRF format); settings: human FLAP wild type, HTRF format; average of two plates, duplicates
Experimental: The ability of the compounds of the present invention to treat a FLAP-mediated disease and/or disorder, or associated symptoms or complications thereof, was determined using the following procedures. Binding assay data represent the average value obtained from two different assay plates, with samples run in duplicate on each plate. Human whole blood assay data represent a single replicate on an assay plate using whole blood from at least one healthy donor.
Data are expressed as a HTRF ratio.

Chain of human FLAP (P20292 whole entry): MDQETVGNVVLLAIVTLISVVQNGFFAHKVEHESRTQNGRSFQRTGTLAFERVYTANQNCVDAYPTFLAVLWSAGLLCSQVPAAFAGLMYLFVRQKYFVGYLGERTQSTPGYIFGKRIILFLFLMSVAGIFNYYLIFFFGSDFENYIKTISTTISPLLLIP

Row | SMILES | Ki
1 | CS(=O)(=O)c1ccccc1-c1ccc(-c2ncc(N)nc2C#N)c(F)c1 [Example 3, 6-Amino-3-[3-fluoro-2′-(methylsulfonyl)biphenyl-4-yl]pyrazine-2-carbonitrile] | > 10000 nM
2 | CN1C(C)(C)CC(NS(=O)(=O)c2ccccc2-c2ccc(-c3cnc(N)cn3)c(F)c2)CC1(C)C [Example 30, 4′-(5-Aminopyrazin-2-yl)-3′-fluoro-N-(1,2,2,6,6-pentamethylpiperidin-4-yl)biphenyl-2-sulfonamide] | 95 nM
3 | Nc1cnc(-c2ccc(-c3ccccc3NS(N)(=O)=O)cc2F)cn1 [Example 33, N-[4′-(5-Aminopyrazin-2-yl)-3′-fluorobiphenyl-2-yl]sulfamide] | 304 nM
4 | CCS(=O)(=O)c1ccccc1-c1ccc(-c2cnc(N)cn2)c(F)c1 [Example 191, 5-[2′-(Ethylsulfonyl)-3-fluorobiphenyl-4-yl]pyrazin-2-amine] | 658 nM
5 | CC(C)(C)S(=O)(=O)c1ccccc1-c1ccc(-c2cnc(N)cn2)c(F)c1 [Example 194, 5-[2′-(tert-Butylsulfonyl)-3-fluorobiphenyl-4-yl]pyrazin-2-amine] | 733 nM
6 | C[C@H](CO)NS(=O)(=O)Cc1ccccc1-c1ccc(-c2cnc(N)cn2)c(F)c1 [Example 225, (R)-1-(4′-(5-Aminopyrazin-2-yl)-3′-fluoro-[1,1′-biphenyl]-2-yl)-N-(1-hydroxypropan-2-yl)-methanesulfonamide hydrochloride] | 856 nM
7 | NC(=O)NC1CCN(S(=O)(=O)Cc2ccccc2-c2ccc(-c3cnc(N)cn3)c(F)c2)CC1 [Example 232, 1-[1-({[4′-(5-Aminopyrazin-2-yl)-3′-fluorobiphenyl-2-yl]methyl}sulfonyl)piperidin-4-yl]urea hydrochloride] | 358 nM
8 | Nc1cnc(-c2ccc(-c3ccccc3CSc3cccnn3)cc2F)cn1 [Example 239, 5-(3-Fluoro-2′-((pyridazin-3-ylthio)methyl)-[1,1′-biphenyl]-4-yl)pyrazin-2-amine hydrochloride] | 6 nM
9 | Nc1ncc(-c2ccc(-c3ccccc3S(=O)(=O)N3CCNCC3)cc2F)cn1 [Example 290, 5-[3-Fluoro-2′-(piperazin-1-ylsulfonyl)biphenyl-4-yl]pyrimidin-2-amine trifluoroacetic acid salt] | 940 nM
10 | CC(C)(C)S(=O)(=O)c1ccccc1-c1ccc(-c2cnc(N)nc2)c(F)c1 [Example 293, 5-[2′-(tert-Butylsulfonyl)-3-fluorobiphenyl-4-yl]pyrimidin-2-amine trifluoroacetic acid salt] | > 10000 nM
11 | CN(C)S(=O)(=O)c1ccccc1-c1ccc(-c2cnc(N)nc2)c(F)c1 [Example 299, 4′-(2-Aminopyrimidin-5-yl)-3′-fluoro-N,N-dimethylbiphenyl-2-sulfonamide trifluoroacetic acid salt] | 121 nM
12 | Nc1ncc(-c2ccc(-c3ccccc3S(N)(=O)=O)cc2F)cn1 [Example 302, 4′-(2-Aminopyrimidin-5-yl)-3′-fluorobiphenyl-2-sulfonamide trifluoroacetic acid salt] | 2500 nM
13 | Nc1ncc(-c2ccc(-c3ccccc3S(=O)(=O)N3CCOCC3)cc2F)cn1 [Example 303, 5-[3-Fluoro-2′-(morpholin-4-ylsulfonyl)biphenyl-4-yl]pyrimidin-2-amine trifluoroacetic acid salt] | 612 nM
14 | Nc1ncc(-c2ccc(-c3ccccc3S(=O)(=O)N3CCNC(=O)C3)cc2F)cn1 [Example 306, 4-{[4′-(2-Aminopyrimidin-5-yl)-3′-fluorobiphenyl-2-yl]sulfonyl}piperazin-2-one trifluoroacetic acid salt] | 397 nM
15 | C[C@H](NS(=O)(=O)c1ccccc1-c1ccc(-c2cnc(N)nc2)c(F)c1)C(=O)O [Example 308, N-{[4′-(2-Aminopyrimidin-5-yl)-3′-fluorobiphenyl-2-yl]sulfonyl}-L-alanine] | > 10000 nM
16 | Nc1ncc(-c2ccc(-c3ccccc3NS(=O)(=O)N3CCOCC3)cc2F)cn1 [Example 310, N-[4′-(2-Aminopyrimidin-5-yl)-3′-fluorobiphenyl-2-yl]morpholine-4-sulfonamide] | 492 nM
17 | CN(C)S(=O)(=O)Nc1ccccc1-c1ccc(-c2cnc(N)nc2)c(F)c1 [Example 311, N′-[4′-(2-Aminopyrimidin-5-yl)-3′-fluorobiphenyl-2-yl]-N,N-dimethylsulfamide] | 747 nM
18 | Nc1ncc(-c2ccc(-c3ccccc3S(=O)(=O)C3CCS(=O)(=O)CC3)cc2F)cn1 [Example 316, 5-{2′-[(1,1-Dioxidotetrahydro-2H-thiopyran-4-yl)sulfonyl]-3-fluorobiphenyl-4-yl}pyrimidin-2-amine hydrochloride] | 746 nM
19 | Nc1cnc(S(=O)(=O)c2ccccc2-c2ccc(-c3cnc(N)nc3)c(F)c2)nc1 [Example 339, 5-{2′-[(5-Aminopyrimidin-2-yl)sulfonyl]-3-fluorobiphenyl-4-yl}pyrimidin-2-amine hydrochloride] | 2500 nM
20 | CS(=O)(=O)c1ccccc1-c1ccc(-c2ccc(N)nc2)c(F)c1 [Example 341, 5-(3-Fluoro-2′-(methylsulfonyl)-[1,1′-biphenyl]-4-yl)pyridin-2-amine] | > 10000 nM
21 | C[C@@H](CO)NS(=O)(=O)c1ccccc1-c1ccc(-c2ccc(N)nc2)c(F)c1 [Example 347, (S)-4′-(6-Aminopyridin-3-yl)-3′-fluoro-N-(1-hydroxypropan-2-yl)-[1,1′-biphenyl]-2-sulfonamide] | 77 nM
22 | CC(C)Sc1ncc(C(F)(F)F)cc1-c1ccc(-c2cnc3[nH]ccc3n2)c(F)c1 [Example 394, 2-(2-Fluoro-4-{2-[(1-methylethyl)sulfanyl]-5-(trifluoromethyl)pyridin-3-yl}phenyl)-5H-pyrrolo[2,3-b]pyrazine] | > 10000 nM

same assay, conditions: read-out: FLAP Binding wild type HTRF Ki

Row | SMILES | Ki
23 | Nc1cnc(-c2ccc(-c3ccccc3CS(=O)(=O)N3CCNC(=O)C3)cc2F)cn1 [Example 223, 4-({[4′-(5-Aminopyrazin-2-yl)-3′-fluorobiphenyl-2-yl]methyl}sulfonyl)piperazin-2-one formic acid salt] | 663 nM
24 | CS(=O)(=O)c1ccccc1-c1ccc(-c2cnc(N)nc2)c(F)c1 [Example 304, 5-[3-Fluoro-2′-(methylsulfonyl)biphenyl-4-yl]pyrimidin-2-amine trifluoroacetic acid salt] | > 10000 nM
25 | Nc1ncc(-c2ccc(-c3ccccc3S(=O)(=O)c3ncncc3N)cc2F)cn1 [Example 337, 5-{2′-[(5-Aminopyrimidin-4-yl)sulfonyl]-3-fluorobiphenyl-4-yl}pyrimidin-2-amine hydrochloride] | 2500 nM

same assay, conditions: wild type FLAP, HTRF format

Row | SMILES | Ki
26 | CC(O)C1CN(C(=O)c2ccccc2-c2ccc(-c3cnc(N)cn3)c(F)c2)CCO1 (mixture of isomers) [Example 758, 1-(4-{[4′-(5-Aminopyrazin-2-yl)-3′-fluorobiphenyl-2-yl]carbonyl}morpholin-2-yl)ethanol (Diastereomeric Mixture)] | 557 nM
27 | CC(O)C1CN(C(=O)c2ccccc2-c2ccc(-c3cnc(N)nc3)c(F)c2)CCO1 (mixture of isomers) [Example 759, 1-(4-{[4′-(2-Aminopyrimidin-5-yl)-3′-fluorobiphenyl-2-yl]carbonyl}morpholin-2-yl)ethanol (diastereomeric mixture)] | > 10000 nM
28 | Nc1ncc(-c2ccc(-c3ccccc3C(=O)NC3CCC(O)CC3)cc2F)cn1 (mixture of isomers) [Example 765, (cis/trans) 4′-(2-Aminopyrimidin-5-yl)-3′-fluoro-N-(4-hydroxycyclohexyl)biphenyl-2-carboxamide] | > 10000 nM
29 | CC1CN(C(=O)c2ccccc2-c2ccc(-c3cnc(N)nc3)c(F)c2)CC(C)O1 (mixture of isomers) [Example 780, 5-{2′-[(2,6-Dimethylmorpholin-4-yl)carbonyl]-3-fluorobiphenyl-4-yl}pyrimidin-2-amine (Diastereoisomeric Mixture)] | > 10000 nM
30 | C[S+]([O-])c1ccccc1-c1ccc(-c2cnc(N)cn2)c(F)c1 (racemic) [Example 700, racemic 5-[3-Fluoro-2′-(methylsulfinyl)biphenyl-4-yl]pyrazin-2-amine] | > 10000 nM
31 | Nc1ncc(-c2ccc(-c3ccccc3C(=O)N3CCOC(C(F)(F)F)C3)cc2F)cn1 (racemic) [Example 766, racemic 5-(3-Fluoro-2′-{[2-(trifluoromethyl)morpholin-4-yl]carbonyl}biphenyl-4-yl)pyrimidin-2-amine] | 1910 nM
32 | Nc1ncc(-c2ccc(-c3ccccc3C(=O)N3CCOC(CO)C3)cc2F)cn1 (racemic) [Example 799, racemic [2-[4-(2-Aminopyrimidin-5-yl)-3-fluoro-phenyl]phenyl]-[2-(hydroxymethyl)morpholin-4-yl]methanone] | > 10000 nM
33 | CC(CO)Oc1ncccc1-c1ccc(-c2cnc(N)nc2)c(F)c1 (stereo in doubt) [Example 656, (2R)-2-({3-[4-(2-Aminopyrimidin-5-yl)-3-fluorophenyl]pyridin-2-yl}oxy)propan-1-ol] | 1400 nM
34 | Fc1cc(-c2cccnc2OCC(F)(F)F)ccc1-c1cnc2[nH]ccc2n1 [Example 397, 2-{2-Fluoro-4-[2-(2,2,2-trifluoroethoxy)pyridin-3-yl]phenyl}-5H-pyrrolo[2,3-b]pyrazine] | > 10000 nM
35 | Nc1cnc(-c2ccc(-c3cccnc3OCC3CCNC3)cc2F)cn1 (stereo not shown) [Example 407, 5-{2-Fluoro-4-[2-(pyrrolidin-3-ylmethoxy)pyridin-3-yl]phenyl}pyrazin-2-amine] | > 10000 nM
36 | Nc1ncc(-c2ccc(-c3cccnc3N)cc2F)cn1 [Example 409, 5-[4-(2-Aminopyridin-3-yl)-2-fluorophenyl]pyrimidin-2-amine] | > 10000 nM
37 | N#Cc1nc(-c2ccc(-c3ccccc3C(=O)N3CCOCC3)cc2F)cnc1N [Example 416, 3-Amino-6-[3-fluoro-2′-(morpholin-4-ylcarbonyl)biphenyl-4-yl]pyrazine-2-carbonitrile] | 1250 nM
